Experimental findings from ChEMBL document CHEMBL4017448, “Novel pyrazolo[1,5-a]pyridines as orally active EP1 receptor antagonists: Synthesis, structure-activity relationship studies, and biological evaluation” (Bioorg Med Chem, 2017) are described below.

The target of data set [1] is T1, Prostaglandin E2 receptor EP1 subtype (Rattus norvegicus, UniProt P70597).
T1 sequence (P70597 whole entry): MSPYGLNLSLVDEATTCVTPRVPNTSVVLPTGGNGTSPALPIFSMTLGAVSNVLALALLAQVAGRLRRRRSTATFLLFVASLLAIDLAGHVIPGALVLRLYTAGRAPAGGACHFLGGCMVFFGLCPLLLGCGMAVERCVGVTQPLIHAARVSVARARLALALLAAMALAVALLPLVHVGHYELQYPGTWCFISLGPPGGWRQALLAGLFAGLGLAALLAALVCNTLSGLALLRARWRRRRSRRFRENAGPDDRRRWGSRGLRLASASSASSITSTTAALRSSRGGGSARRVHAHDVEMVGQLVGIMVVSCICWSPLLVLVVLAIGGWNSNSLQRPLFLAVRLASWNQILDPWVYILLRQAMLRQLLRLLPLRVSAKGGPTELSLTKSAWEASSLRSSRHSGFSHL
As to the kind of experiment: Antagonist activity at rat EP1 receptor expressed in African green monkey COS1 cells assessed as decrease in prostaglandin E2-induced increase in intracellular calcium level incubated for 90 mins measured for 60 secs by Fluo 4-AM dye based fluorescence assay. Format: functional, cell-based. Background: A change in cytosolic calcium serves as a functional read-out for many receptors and channels.

Data set [2] can be described thus: AUC (0 to 8 hrs) in rat at 1 mg/kg, iv. The format is ADME, organism-based. Further details: dose 1 mg/kg, time < 8 hr, route intravenous. The conditions noted are these: in vivo.
The nature of data set [3]: Total clearance in rat at 1 mg/kg, iv. Format: ADME, organism-based. The conditions noted are these: in vivo.
Data set [4] in a line: AUC (0 to 8 hrs) in rat at 1 mg/kg, po. Format: ADME, organism-based. Further details: time < 8 hr, dose 1 mg/kg, route oral. The conditions noted are these: in vivo.
For data set [5], the system named is Rattus norvegicus. As to the kind of experiment: Reduction in 17-PTP induced bladder contraction in Wistar rat assessed as change in intravesical pressure administered intraduodenal pretreated for 5 followed by 17-PTP challenge at every 30 mins interval for 245 mins. Format: functional.
In data set [6] the test system is Rattus norvegicus. Put plainly: Reduction in 17-PTP induced bladder contraction in Wistar rat assessed as change in intravesical pressure administered intravenously pretreated for 5 followed by 17-PTP challenge at every 30 mins interval for 245 mins. The format is functional.
Data set [7] in a line: Half life in rat at 1 mg/kg, po. The format is ADME, organism-based. The following applies: in vivo.
The nature of data set [8]: Oral bioavailability in rat at 1 mg/kg. The conditions noted are these: in vivo. Format: ADME, organism-based.
A short description of data set [9]: Volume of distribution in rat at 1 mg/kg, iv. Format: ADME, organism-based. The conditions noted are these: in vivo.
Data set [10] can be described thus: Half life in rat at 1 mg/kg, iv. Format: ADME, organism-based. The conditions noted are these: in vivo.
A short description of data set [11]: AUC (0 to infinity) in rat at 1 mg/kg, iv. Format: ADME, organism-based. Further details: dose 1 mg/kg, time infinity, route intravenous. The conditions noted are these: in vivo.
A short description of data set [12]: AUC (0 to infinity) in rat at 1 mg/kg, po. The format is ADME, organism-based. Further details: dose 1 mg/kg, route oral, time infinity. The conditions noted are these: in vivo.

With `Cc1cc(C(=O)O)nn1Cc1cccc2cc(-c3ccccc3)nn12`, the IC50 in data set [1] was found to be 120 nM.
Still for that read-out and setting: the same measure for `O=C(O)c1ccn(Cc2cc(Cl)cc3cc(-c4ccccc4)nn23)c1`: 190 nM; for `CCc1cc(C(=O)O)nn1Cc1cc(Cl)cc2cc(-c3ccccc3)nn12`: 300 nM; for `CC(C)Cc1cc(C(=O)O)nn1Cc1cc(Cl)cc2cc(-c3ccccc3)nn12`: 2000 nM.
Same read-out and setting: the same measure for `COc1cccc(-c2cc3cc(Cl)cc(Cn4nc(C(=O)O)cc4C)n3n2)c1`: 110 nM; for `Cc1cc(C(=O)O)nn1Cc1cc(C#N)cc2cc(-c3ccccc3)nn12`: 1000 nM.
Still for that read-out and setting: then `Cc1cc(C(=O)O)nn1Cc1ccc(Cl)c2cc(-c3ccccc3)nn12`, with 2600 nM; and `COc1ccc2cc(-c3ccccc3)nn2c1Cn1nc(C(=O)O)cc1C`, with 1500 nM.
Take `CC(=O)c1cc(Cn2nc(C(=O)O)cc2C)n2nc(-c3ccccc3)cc2c1`: the concentration for half-maximal inhibition (IC50) in data set [1] stood at 600 nM.
Regarding `Cc1cc(C(=O)O)nn1Cc1cc(Cl)cc2cc(-c3ccccc3)nn12`, the AUC(0-t) at 8 h in [2] came out at 5010 ng·h/mL; in [4] it was 4870 ng·h/mL. For the same compound, the clearance in data set [3] was 2.59 mL/min/kg. The Activity entry in the data set with Rattus norvegicus [5] and in the data set on Rattus norvegicus [6] was “Dose-dependent effect” each time. Also, the half-life was 4.28 h in data set [7] and 4.99 h in [10]. In [1], the half-inhibitory concentration (IC50) was 9.4 nM. The bioavailability in data set [8] stood at 81%. Further, the Vd in [9] came to 0.908 L/kg. For the same compound, the AUC(0-inf) in data set [11] amounted to 7470 ng·h/mL; in [12], 6030 ng·h/mL.
On to `Cc1cc(C(=O)O)nn1Cc1c(Cl)ccc2cc(-c3ccccc3)nn12`, for which the half-inhibitory concentration (IC50) in data set [1] turned out to be 540 nM.
In the case of `COc1ccccc1-c1cc2cc(Cl)cc(Cn3nc(C(=O)O)cc3C)n2n1`, in [1], the IC50 was 840 nM.
Same read-out and setting: then `CCCc1cc(C(=O)O)nn1Cc1cc(Cl)cc2cc(-c3ccccc3)nn12`, with 97 nM.
Still for that read-out and setting: then `COc1ccc(Cn2nc(C(=O)O)cc2C)n2nc(-c3ccccc3)cc12`, with 1100 nM.
Same read-out and setting: then `CCCCc1cc2cc(Cl)cc(Cn3nc(C(=O)O)cc3C)n2n1`, with 1900 nM; and `Cc1cc(C(=O)O)nn1Cc1cc(Cl)cc2cc(C3CCCC3)nn12`, with 410 nM.
With `Cc1cc(C(=O)O)nn1Cc1cc(Cl)cc2cc(-c3ccc(Cl)cc3)nn12`, in data set [1], the IC50 stood at 290 nM.
Take `Cc1cc(C(=O)O)nn1Cc1cc(Cl)cc2cc(-c3ccccc3)oc12`: the IC50 in data set [1] amounted to 22 nM.
Still for that read-out and setting: the same measure for `CC(C)c1cc(C(=O)O)nn1Cc1cc(Cl)cc2cc(-c3ccccc3)nn12`: 1200 nM.
The same measure, in the same setting: the same measure for `COc1cc(Cn2nc(C(=O)O)cc2C)n2nc(-c3ccccc3)cc2c1`: 9600 nM; for `Cc1cc(C(=O)O)nn1Cc1cc(Cl)cc2cc(C(C)(C)C)nn12`: 2100 nM; for `C=Cc1cc(Cn2nc(C(=O)O)cc2C)n2nc(-c3ccccc3)cc2c1`: 360 nM.
Same read-out and setting: the same measure for `Cc1cc(Cn2nc(C(=O)O)cc2C)n2nc(-c3ccccc3)cc2c1`: 450 nM.
As for `Cc1cc(C(=O)O)nn1Cc1cc(C(F)(F)F)cc2cc(-c3ccccc3)nn12`, in data set [1], the IC50 was determined as 300 nM.
The same measure, in the same setting: then `COc1ccc(-c2cc3cc(Cl)cc(Cn4nc(C(=O)O)cc4C)n3n2)cc1`, with 410 nM; and `CCCC/C=C/c1cc(Cn2nc(C(=O)O)cc2C)n2nc(-c3ccccc3)cc2c1`, with 1500 nM.
Regarding `Cc1cc(C(=O)O)nn1Cc1cc(Cl)cc2cc(CC(C)C)nn12`, in [1], the IC50 was 1400 nM.
Same read-out and setting: then `Cc1cc(C(=O)O)nn1Cc1cc(Cl)cc2cc(-c3cccc(Cl)c3)nn12`, with 150 nM.
Same read-out and setting: then `Cc1cc(C(=O)O)nn1Cc1cc(Cl)cc2cc(C3CCCCC3)nn12`, with 71 nM; and `O=C(O)c1ccn(Cc2cc(Cl)cc3cc(-c4ccccc4)nn23)n1`, with 89 nM; and `Cc1cc(C(=O)O)nn1Cc1cc(Cl)cc2cc(C3CC3)nn12`, with 180 nM.
On the same count and under the same terms, then `Cc1cc(C(=O)O)nn1Cc1cc(Cl)cc2cc(-c3ccccc3Cl)nn12`, with 220 nM.

Broadly, the IC50 is the concentration at which inhibition is half-maximal. As usually defined, the AUC(0-t) is the area under the concentration-time curve up to a stated or last time point. One may read the clearance as the rate of elimination divided by the concentration. As usually defined, the half-life is how long it takes for the measured level to halve. The term bioavailability denotes dose-corrected exposure relative to a reference, in per cent. By Vd is commonly meant a proportionality between amount in the body and measured concentration, not a real space. A word on the AUC(0-inf): it is total exposure, with the tail of the curve extrapolated.
